Laboratory results taken from patent publication US12642805B2, “Use of oxygenated cholesterol sulfates for treating at least one of insulin resistance, diabetes, and prediabetes” (Medicis Pharmaceutical Corporation, priority 2020, dated 2026).
Read-outs that look alike come from different tables or passages of the source.

Key:
[1] = system: Huh-7 cells; assay: real-time RT-PCR gene expression; assay type: cell-based, human; settings: HG 72 h; 25HC3S 6.25-50 μM, 1-8 hours
Experimental: FIGS. 3A-3D. Expression of key genes related to signaling pathways. […] Key Genes and their targeting genes expression were determined by RT-PCR analysis. […] Each sample, 2 μg, was sent to […], Inc. (Hopkinton, MA) for analysis of global methylation bisulfite sequencing. The same samples, 6 μg, were sent to Novogene Co., Ltd (Tianjin, China) for analysis of whole genome bisulfite sequencing (WGBS). Total RNA was isolated using the Promega SV total RNA isolation system (Madison, WI) with DNase treatment. […] Real-time RT-PCR was performed using SYBR Green as the indicator on ABI 7500 Fast Real-Time PCR System (Applied Biosystems, Foster City, CA). Amplifications of β-actin or GAPDH were used as internal controls. Relative messenger RNA (mRNA) expression was quantified with the comparative cycle threshold (Ct) method using the primer set shown in Table 1.1 and was expressed as 2^-ΔΔCt.

[2] = single oral dose pharmacokinetic study in healthy and NASH subjects; assay type: in vivo, human; settings: for Cmax: po, read-out: Cmax, Mean
Experimental: The present Example was a randomized, dose ranging, single dose safety and pharmacokinetic study of 25HC3S administered to subjects with NASH and control healthy subjects. […] For each cohort, 10 subjects with NASH were enrolled which were further classified into cirrhotic and non-cirrhotic. Each subject received only one dose of study treatment. The second cohort was dosed after a review of safety and tolerability data from Cohort 1.

[3] = Phase 1b 4-week oral dosing study in NASH patients: pharmacokinetics; assay type: in vivo, human; settings: for AUC(0-t) / Cmax / half-life / Tmax: both sexes, human, plasma, oral; for AUC(0-t): read-out: AUC(0-T), mean (standard deviation); for Cmax: read-out: Cmax, mean (standard deviation); for half-life: read-out: T1/2, mean (standard deviation) (converted); for Tmax: read-out: Tmax, mean (standard deviation)
Text: A total of 63 patients completed the study with 21 patients per dose group (completion of MRI-PDFF measurement). […] Subjects provided written informed consent to participate in the study • 2. Males or females subjects 18 years or older, at the time of signing informed consent • 3. BMI 20-45 kg/m^2 • 4. […] Value of Fibroscan®≥7 kPa • OR • b. MRE≥2.75 kPa • Clinical diagnosis of NASH was defined in this clinical trial as the existence of one or more of the following risk factors for NASH, namely: • a. Type 2 diabetes or elevated fasting blood sugar • b. Abdominal obesity • c. Elevated lipid levels, especially elevated levels of serum triglycerides • d. Hypertension, or • e. Low levels of HDL cholesterol • 5. For serum transaminases, ALT concentration for all patients at the time of screening was >1 and <5 times upper limit of normal (ULN) of the central lab in the absence of another cause of liver disease. If a patient had lab records in the past 6 months, ALT concentrations were <20 U/L female and <30 U/L male. AST concentration for all patients at the time of screening was <5× ULN • 6. […] Platelet counts≥120,000/mm^3 • 8. Female subjects were eligible for the study if they met the following criteria: • Are not pregnant or nursing • Women of child-bearing potential (defined as females who are not surgically sterile or who are not over the age of 52 and amenorrheic for at least 12 months) must utilize appropriate birth control throughout the study duration. Acceptable methods that may be used are abstinence, birth control pills (“The Pill”) or patch, diaphragm, IUD (coil), vaginal ring, condom, surgical sterilization or progestin implant or injection, or sexual activity limited to a sterile (e.g., vasectomized) male partner • 9. Male participants agreed to consistently and correctly use a condom in combination with one of the above methods of birth control from enrolment to 30 days after the last dose of study medication • 10. Participants were able to comply with dosing and able to complete the study schedule of assessments

[4] = metabolite profiling of plasma, urine, feces after intravenous dose; settings: rats 10 mg/kg intravenous
Experimental: Samples were profiled using high performance liquid chromatography with radiodetection and metabolic characterization was performed using mass spectrometry and tandem mass spectrometry analysis.

SMILES: C[C@H](CCCC(C)(C)O)[C@H]1CC[C@H]2[C@@H]3CC=C4C[C@@H](OS(=O)(=O)O)CC[C@]4(C)[C@H]3CC[C@]12C [25HC3S, 25-hydroxycholesterol-3-sulfate]
- CREB5 expression, increase [1]: up to 20 fold
- DUSP8 expression, increase [1]: 5 fold
- FAS expression, decrease [1]: ~90%
- HMGR expression, decrease [1]: ~90%
- PGC1A expression, increase [1]: 12 fold
- CL/F, Mean ([2]; 200 mg single oral dose, Healthy): 171.25 ± 28.60 L/h
- Plasma 25HC3S levels detectable up to, post-dose ([2]; Cohort 1 (50 mg) healthy subjects): up to 12 hours
- AUC0-inf higher in NASH subjects ([2]; Cohort 2): approximately 20%
- Geometric mean AUC0-12 and AUC0-last higher in NASH than healthy subjects ([2]; Cohort 2): approximately 30%
- Plasma 25HC3S levels detectable up to, post-dose ([2]; Cohort 2 (200 mg) healthy subjects): up to 16 hours
- geometric mean Cmax increase, NASH over healthy subjects ([2]; Cohorts 1 and 2): 18-24%
- exposure (AUC parameters), increasing trends in NASH subjects ([2]; NASH vs healthy): up to 31%
- half-life ([2]; human, plasma, oral, 200 mg, across both healthy and NASH subject groups, 50 and 200 mg, read-out: T1/2, range of mean values): 100 to 151 min
- Cmax ([2]; human, plasma, 50 mg, 50 mg single oral dose, Healthy): 94 ± 27.3 ng/mL
- Cmax ([2]; human, plasma, 200 mg, 200 mg single oral dose, Healthy): 260 ± 54.8 ng/mL
- CL/F, mean (standard deviation) ([3]; 50 mg QD (n = 22)): 150.6 (51.5) L/h
- CL/F, mean (standard deviation) ([3]; 150 mg QD (n = 21)): 176.6 (80.5) L/h
- CL/F, mean (standard deviation) ([3]; 300 mg BID (n = 21)): 166.2 (60.4) L/h
- AUC(0-t) ([3]; 50 mg QD (n = 22)): 340 ng·h/mL
- Cmax ([3]; 50 mg QD (n = 22)): 79.1 ng/mL
- half-life ([3]; 50 mg QD (n = 22)): 162 min
- Tmax ([3]; 50 mg QD (n = 22)): 2.4 h
- AUC(0-t) ([3]; 150 mg QD (n = 21)): 1040 ng·h/mL
- Cmax ([3]; 150 mg QD (n = 21)): 274 ng/mL
- half-life ([3]; 150 mg QD (n = 21)): 162 min
- Tmax ([3]; 150 mg QD (n = 21)): 2 h
- AUC(0-t) ([3]; 300 mg BID (n = 21)): 2140 ng·h/mL
- Cmax ([3]; 300 mg BID (n = 21)): 430 ng/mL
- half-life ([3]; 300 mg BID (n = 21)): 144 min
- Tmax ([3]; 300 mg BID (n = 21)): 2.3 h
- % of dose in feces ([4]; pools 0 to 48 hours): 2%
- share of the exposure (AUC) to 25HC3S related radioactivity in plasma ([4]; up to 1 hour post-dose): approximately 54%
